Data published in the supplement of paper PMC10307832.

Key:
Assay in all cases: relative viability (nuclei count vs DMSO), 5 days (fraction); higher = more cells survive
[1] = compound: CC1=NN=C(O1)C2=NN=C(C=C2)N3CCC(CC3)OC4=C(C=CC(=C4)F)Cl + N=C(N)NC(=N)NCCc1ccccc1 [Phenformin] (partner 250 µM)
Outline: (§1)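 Lung cancer cell lines were pin-tool dosed in 1536-well plates on the day after seeding, with either a lone drug or a fixed anchor-drug dose plus five library-drug doses (not always all listed) in √10 steps. Nuclei were counted on 4× images after 5 days. Relative viability is the ratio of treated-well to vehicle-well nuclei counts, with each value a median of duplicate plates.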

Tosedostat + Pictilisib = compound: CC(C)C[C@@H](C(=O)N[C@H](C(=O)OC1CCCC1)c1ccccc1)[C@H](O)C(=O)NO [Tosedostat] + CS(=O)(=O)N1CCN(Cc2cc3nc(-c4cccc5[nH]ncc45)nc(N4CCOCC4)c3s2)CC1 [Pictilisib] (partner 1 µM)
Outline: as §1

Tosedostat + Trametinib = compound: CC(C)C[C@@H](C(=O)N[C@H](C(=O)OC1CCCC1)c1ccccc1)[C@H](O)C(=O)NO [Tosedostat] + CC(=O)Nc1cccc(-n2c(=O)n(C3CC3)c(=O)c3c(Nc4ccc(I)cc4F)n(C)c(=O)c(C)c32)c1 [Trametinib] (partner 0.02 µM)
Outline: as §1

Tosedostat + AZD7762 = compound: CC(C)C[C@@H](C(=O)N[C@H](C(=O)OC1CCCC1)c1ccccc1)[C@H](O)C(=O)NO [Tosedostat] + NC(=O)Nc1cc(-c2cccc(F)c2)sc1C(=O)N[C@H]1CCCNC1 [AZD7762] (partner 0.2 µM)
Outline: as §1

Cell Line: 201T
- relative viability ([1]; first compound 0.253 µM): 0.38
- relative viability ([1]; first compound 0.8 µM): 0.436
- relative viability ([1]; first compound 2.53 µM): 0.46
- relative viability ([1]; first compound 8 µM): 0.443
- relative viability (Tosedostat + Pictilisib; first compound 0.02 µM): 0.669
- relative viability (Tosedostat + Pictilisib; first compound 0.06325 µM): 0.682
- relative viability (Tosedostat + Pictilisib; first compound 0.2 µM): 0.788
- relative viability (Tosedostat + Pictilisib; first compound 0.6325 µM): 0.78
- relative viability (Tosedostat + Pictilisib; first compound 2 µM): 0.762
- relative viability (Tosedostat + Trametinib; first compound 0.02 µM): 0.673
- relative viability (Tosedostat + Trametinib; first compound 0.06325 µM): 0.743
- relative viability (Tosedostat + Trametinib; first compound 0.2 µM): 0.732
- relative viability (Tosedostat + Trametinib; first compound 0.6325 µM): 0.745
- relative viability (Tosedostat + Trametinib; first compound 2 µM): 0.781
- relative viability (Tosedostat + AZD7762; first compound 0.02 µM): 0.592
- relative viability (Tosedostat + AZD7762; first compound 0.06325 µM): 0.668
- relative viability (Tosedostat + AZD7762; first compound 0.2 µM): 0.669
- relative viability (Tosedostat + AZD7762; first compound 0.6325 µM): 0.584
- relative viability (Tosedostat + AZD7762; first compound 2 µM): 0.576

Cell Line: NCI-H2170
- relative viability ([1]; first compound 0.253 µM): 0.336
- relative viability ([1]; first compound 0.8 µM): 0.291
- relative viability ([1]; first compound 2.53 µM): 0.355
- relative viability ([1]; first compound 8 µM): 0.323
- relative viability (Tosedostat + Pictilisib; first compound 0.02 µM): 0.31
- relative viability (Tosedostat + Pictilisib; first compound 0.06325 µM): 0.33
- relative viability (Tosedostat + Pictilisib; first compound 0.2 µM): 0.385
- relative viability (Tosedostat + Pictilisib; first compound 0.6325 µM): 0.291
- relative viability (Tosedostat + Pictilisib; first compound 2 µM): 0.289
- relative viability (Tosedostat + Trametinib; first compound 0.02 µM): 0.945
- relative viability (Tosedostat + Trametinib; first compound 0.06325 µM): 0.971
- relative viability (Tosedostat + Trametinib; first compound 0.2 µM): 0.925
- relative viability (Tosedostat + Trametinib; first compound 0.6325 µM): 0.894
- relative viability (Tosedostat + Trametinib; first compound 2 µM): 0.915
- relative viability (Tosedostat + AZD7762; first compound 0.02 µM): 0.85
- relative viability (Tosedostat + AZD7762; first compound 0.06325 µM): 0.94
- relative viability (Tosedostat + AZD7762; first compound 0.2 µM): 0.948
- relative viability (Tosedostat + AZD7762; first compound 0.6325 µM): 0.976
- relative viability (Tosedostat + AZD7762; first compound 2 µM): 0.892

Cell Line: RERF-LC-KJ
- relative viability ([1]; first compound 0.253 µM): 0.389
- relative viability ([1]; first compound 0.8 µM): 0.434
- relative viability ([1]; first compound 2.53 µM): 0.466
- relative viability ([1]; first compound 8 µM): 0.392
- relative viability (Tosedostat + Pictilisib; first compound 0.02 µM): 0.463
- relative viability (Tosedostat + Pictilisib; first compound 0.06325 µM): 0.647
- relative viability (Tosedostat + Pictilisib; first compound 0.2 µM): 0.45
- relative viability (Tosedostat + Pictilisib; first compound 0.6325 µM): 0.471
- relative viability (Tosedostat + Pictilisib; first compound 2 µM): 0.433
- relative viability (Tosedostat + Trametinib; first compound 0.02 µM): 0.878
- relative viability (Tosedostat + Trametinib; first compound 0.06325 µM): 0.784
- relative viability (Tosedostat + Trametinib; first compound 0.2 µM): 0.81
- relative viability (Tosedostat + Trametinib; first compound 0.6325 µM): 0.782
- relative viability (Tosedostat + Trametinib; first compound 2 µM): 0.686
- relative viability (Tosedostat + AZD7762; first compound 0.02 µM): 1.12
- relative viability (Tosedostat + AZD7762; first compound 0.06325 µM): 1.08
- relative viability (Tosedostat + AZD7762; first compound 0.2 µM): 1.08
- relative viability (Tosedostat + AZD7762; first compound 0.6325 µM): 0.912
- relative viability (Tosedostat + AZD7762; first compound 2 µM): 0.664

Cell Line: HCC-15
- relative viability ([1]; first compound 0.253 µM): 0.441
- relative viability ([1]; first compound 0.8 µM): 0.396
- relative viability ([1]; first compound 2.53 µM): 0.427
- relative viability ([1]; first compound 8 µM): 0.428
- relative viability (Tosedostat + Pictilisib; first compound 0.02 µM): 0.777
- relative viability (Tosedostat + Pictilisib; first compound 0.06325 µM): 0.731
- relative viability (Tosedostat + Pictilisib; first compound 0.2 µM): 0.638
- relative viability (Tosedostat + Pictilisib; first compound 0.6325 µM): 0.572
- relative viability (Tosedostat + Pictilisib; first compound 2 µM): 0.501
- relative viability (Tosedostat + Trametinib; first compound 0.02 µM): 0.394
- relative viability (Tosedostat + Trametinib; first compound 0.06325 µM): 0.353
- relative viability (Tosedostat + Trametinib; first compound 0.2 µM): 0.408
- relative viability (Tosedostat + Trametinib; first compound 0.6325 µM): 0.363
- relative viability (Tosedostat + Trametinib; first compound 2 µM): 0.305
- relative viability (Tosedostat + AZD7762; first compound 0.02 µM): 1.25
- relative viability (Tosedostat + AZD7762; first compound 0.06325 µM): 1.17
- relative viability (Tosedostat + AZD7762; first compound 0.2 µM): 1.29
- relative viability (Tosedostat + AZD7762; first compound 0.6325 µM): 1.31
- relative viability (Tosedostat + AZD7762; first compound 2 µM): 1.15

Cell Line: NCI-H1666
- relative viability ([1]; first compound 0.253 µM): 0.509
- relative viability ([1]; first compound 0.8 µM): 0.57
- relative viability ([1]; first compound 2.53 µM): 0.555
- relative viability ([1]; first compound 8 µM): 0.584
- relative viability (Tosedostat + Pictilisib; first compound 0.02 µM): 0.603
- relative viability (Tosedostat + Pictilisib; first compound 0.06325 µM): 0.404
- relative viability (Tosedostat + Pictilisib; first compound 0.2 µM): 0.5
- relative viability (Tosedostat + Pictilisib; first compound 0.6325 µM): 0.367
- relative viability (Tosedostat + Pictilisib; first compound 2 µM): 0.291
- relative viability (Tosedostat + Trametinib; first compound 0.02 µM): 0.962
- relative viability (Tosedostat + Trametinib; first compound 0.06325 µM): 0.856
- relative viability (Tosedostat + Trametinib; first compound 0.2 µM): 0.929
- relative viability (Tosedostat + Trametinib; first compound 0.6325 µM): 0.91
- relative viability (Tosedostat + Trametinib; first compound 2 µM): 0.851
- relative viability (Tosedostat + AZD7762; first compound 0.02 µM): 0.878
- relative viability (Tosedostat + AZD7762; first compound 0.06325 µM): 0.919
- relative viability (Tosedostat + AZD7762; first compound 0.2 µM): 1.02
- relative viability (Tosedostat + AZD7762; first compound 0.6325 µM): 0.912
- relative viability (Tosedostat + AZD7762; first compound 2 µM): 0.907

Cell Line: LCLC-103H
- relative viability ([1]; first compound 0.253 µM): 0.36
- relative viability ([1]; first compound 0.8 µM): 0.344
- relative viability ([1]; first compound 2.53 µM): 0.335
- relative viability ([1]; first compound 8 µM): 0.225
- relative viability (Tosedostat + Pictilisib; first compound 0.02 µM): 0.733
- relative viability (Tosedostat + Pictilisib; first compound 0.06325 µM): 0.567
- relative viability (Tosedostat + Pictilisib; first compound 0.2 µM): 0.666
- relative viability (Tosedostat + Pictilisib; first compound 0.6325 µM): 0.714
- relative viability (Tosedostat + Pictilisib; first compound 2 µM): 0.54
- relative viability (Tosedostat + Trametinib; first compound 0.02 µM): 0.678
- relative viability (Tosedostat + Trametinib; first compound 0.06325 µM): 0.682
- relative viability (Tosedostat + Trametinib; first compound 0.2 µM): 0.713
- relative viability (Tosedostat + Trametinib; first compound 0.6325 µM): 0.721
- relative viability (Tosedostat + Trametinib; first compound 2 µM): 0.779
- relative viability (Tosedostat + AZD7762; first compound 0.02 µM): 0.886
- relative viability (Tosedostat + AZD7762; first compound 0.06325 µM): 0.713
- relative viability (Tosedostat + AZD7762; first compound 0.2 µM): 0.69
- relative viability (Tosedostat + AZD7762; first compound 0.6325 µM): 0.77
- relative viability (Tosedostat + AZD7762; first compound 2 µM): 0.852

Cell Line: NCI-H650
- relative viability ([1]; first compound 0.253 µM): 0.478
- relative viability ([1]; first compound 0.8 µM): 0.444
- relative viability ([1]; first compound 2.53 µM): 0.43
- relative viability ([1]; first compound 8 µM): 0.414
- relative viability (Tosedostat + Pictilisib; first compound 0.02 µM): 0.933
- relative viability (Tosedostat + Pictilisib; first compound 0.06325 µM): 0.736
- relative viability (Tosedostat + Pictilisib; first compound 0.2 µM): 0.709
- relative viability (Tosedostat + Pictilisib; first compound 0.6325 µM): 0.696
- relative viability (Tosedostat + Pictilisib; first compound 2 µM): 0.578
- relative viability (Tosedostat + Trametinib; first compound 0.02 µM): 1.04
- relative viability (Tosedostat + Trametinib; first compound 0.06325 µM): 1.03
- relative viability (Tosedostat + Trametinib; first compound 0.2 µM): 0.852
- relative viability (Tosedostat + Trametinib; first compound 0.6325 µM): 0.924
- relative viability (Tosedostat + Trametinib; first compound 2 µM): 0.836
- relative viability (Tosedostat + AZD7762; first compound 0.02 µM): 1.32
- relative viability (Tosedostat + AZD7762; first compound 0.06325 µM): 1.05
- relative viability (Tosedostat + AZD7762; first compound 0.2 µM): 0.904
- relative viability (Tosedostat + AZD7762; first compound 0.6325 µM): 0.851
- relative viability (Tosedostat + AZD7762; first compound 2 µM): 0.725

Cell Line: EPLC-272H
- relative viability ([1]; first compound 0.253 µM): 0.315
- relative viability ([1]; first compound 0.8 µM): 0.279
- relative viability ([1]; first compound 2.53 µM): 0.309
- relative viability ([1]; first compound 8 µM): 0.294
- relative viability (Tosedostat + Pictilisib; first compound 0.02 µM): 0.416
- relative viability (Tosedostat + Pictilisib; first compound 0.06325 µM): 0.337
- relative viability (Tosedostat + Pictilisib; first compound 0.2 µM): 0.284
- relative viability (Tosedostat + Pictilisib; first compound 0.6325 µM): 0.3
- relative viability (Tosedostat + Pictilisib; first compound 2 µM): 0.241
- relative viability (Tosedostat + Trametinib; first compound 0.02 µM): 0.29
- relative viability (Tosedostat + Trametinib; first compound 0.06325 µM): 0.296
- relative viability (Tosedostat + Trametinib; first compound 0.2 µM): 0.305
- relative viability (Tosedostat + Trametinib; first compound 0.6325 µM): 0.324
- relative viability (Tosedostat + Trametinib; first compound 2 µM): 0.25
- relative viability (Tosedostat + AZD7762; first compound 0.02 µM): 0.248
- relative viability (Tosedostat + AZD7762; first compound 0.06325 µM): 0.232
- relative viability (Tosedostat + AZD7762; first compound 0.2 µM): 0.267
- relative viability (Tosedostat + AZD7762; first compound 0.6325 µM): 0.153
- relative viability (Tosedostat + AZD7762; first compound 2 µM): 0.192
